The source of these data is patent US11952328B2, “Selective ship inhibitors for treating disease” (THE RESEARCH FOUNDATION FOR THE STATE UNIVERSITY OF NEW YORK, priority 2018, dated 2024).

One test has as its system RMA cells. In words: Apoptosis (AnnexinV), Caspase 8 and CD95/Fas in RMA cells in culture. The test is classed as cell-based, mice. From the text: FIGS. 5A-5I show the effects of SHIP1 inhibitor as a chemotherapeutic. […] FIG. 5D and FIG. 5E show the representative histograms and box-and-whisker plots of FasL expression by NK cells from C56BL/6 (p=0.0002; Unpaired t test with Welch's correction) or RAG1−/− (p<0.0001; Mann-Whitney U test) tumor challenged, SHIP inhibitor or vehicle treated hosts. […] (NK cells p=0.0192; Unpaired t test with Welch's correction. T cells p=0.0659; Mann-Whitney U test). Additionally, FIGS. 5A-5G show the analysis by flow cytometry on day 3 after hosts receive SHIP inhibitor or vehicle for two consecutive days. NK cells are defined as NK1.1+CD3ε−. The graphs are representative of at least two independent experiments with at least four SHIP inhibitor and vehicle treated mice. […] Viability is expressed as frequency at a given concentration expressed as a percentage of solvent only treated cells. The kill curve summarizes pooled data from three independent experiments using six replicate wells/concentration with mean ±SEM indicated (n=18 per group. One-way ANOVA with Dunnett's multiple comparisons. 0 pM vs. 20 pM Adjusted p value =0.0001. 0 pM vs. 15 pM Adjusted p value =0.0001. 0 pM vs. 10 pM Adjusted p value =0.0001. 0 pM vs. 7.5 pM Adjusted p value =0.0001. 0 pM vs. 5 pM Adjusted p value =0.0001).
NK cells are able to directly kill target cells through several different mechanisms including both production of perforin and granzymes and induction of apoptosis via Fas-FasL signaling (Arase, H. et al., Fas-mediated cytotoxicity by freshly isolated natural killer cells. J Exp Med. (1995); 181: 1235-1238; Zamai, L. et al., Natural killer (NK) cell-mediated cytotoxicity: differential use of TRAIL and Fas ligand by immature and mature primary human NK cells. J Exp Med. (1998); 188: 2375-2380). […] SHIP1 was recently shown to be recruited to CD95/Fas to set a threshold for induction of Caspase 8, and thereby, a threshold for induction of apoptosis (Park, M. Y. et al., Impaired T-cell survival promotes mucosal inflammatory disease in SHIP1-deficient mice. Mucosal Immunol. (2014); 7: 1429-1439). […]

In another test the test system is NK cell compartment. The settings on record: uninterrupted, extended-duration treatment, six days each week; Fernandes et al. 2015; cited from earlier work.
Setting [1] is: RMA cells, culture for 12 hours.

Consider `CC(C)CCC[C@@H](C)[C@H]1CC[C@H]2[C@@H]3CCC4C[C@H](N)CC[C@]4(C)[C@H]3CC[C@]12C` (stereo partly drawn) [Compound 3AC, 3-α-aminocholestane], for which the “frequency of death receptor CD95/Fas” value in the test on RMA cells (3AC-treated RMA cells) is listed as “increased frequency”. In addition, in the test on RMA cells (setting [1]), the “activation of Caspase 8” value is recorded as “increased activation of Caspase 8” and the “induction of apoptosis (AnnexinV)” value is “significant induction of apoptosis”. Besides, the “NK cell compartment function (acute rejection of MHC-I mismatched BM graft)” value with NK cell compartment is “disabled NK cell compartment”.
